This is an account of results in publication PMC10302047, “Structure–Activity Relationship Studies of Indolglyoxyl-Polyamine Conjugates as Antimicrobials and Antibiotic Potentiators” (Pharmaceuticals, 2023).

In one data set the test system is Cryptococcus neoformans. The arrangement: method as in PMID 30975502. Conditions: fungus Cryptococcus neoformans; ref [15]; cited from earlier work.
The subject of data set [1] is S. aureus ATCC 25923. Conditions: Staphylococcus aureus ATCC 25923; ref [15]; cited from earlier work.
Data set [2] has as its system HEK293 (human embryonic kidney cells). Conditions: human embryonic kidney cell line HEK293; ref [15]; read-out: IC50 cytotoxicity; cited from earlier work.
Data set [3] has as its system P. aeruginosa ATCC 27853. Conditions: Pseudomonas aeruginosa; result in words; ref [15]; cited from earlier work.
For data set [4], the system named is rat skeletal myoblast cell line L6. Set-up: method as in PMID 30975502. Conditions: ref [15], read-out: IC50 cytotoxicity; cited from earlier work.
Data set [5] relates to P. aeruginosa ATCC 27853. Put plainly: Antibiotic potentiation (MIC of antibiotics in the presence of synergizing compounds), P. aeruginosa. It counts as cell-based, Pseudomonas aeruginosa. Particulars: concentration required to restore doxycycline activity at 2 µg/mL (4.5 µM) against P. aeruginosa ATCC 27853.
For another data set, the system named is E. coli ATCC 25922. In words: Antimicrobial susceptibility (MIC), E. coli. Particulars: Escherichia coli, ATCC25922, mean (n = 3). Format: cell-based. In outline: (§1)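 MICs against E. coli ATCC 25922 and P. aeruginosa ATCC 27853 followed previously reported protocols. MRSA ATCC 43300 and C. albicans ATCC 90028 were tested by CO-ADD under its standard protocols.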

A further data set has as its system MRSA ATCC 43300. In words: Antimicrobial susceptibility (MIC), MRSA. It counts as cell-based. Particulars: Staphylococcus aureus; MRSA ATCC 43300; mean (n = 2); read-out: MIC MRSA. In short, it runs like this: as §1
Data set [6] has as its system P. aeruginosa ATCC 27853. In words: Antimicrobial susceptibility (MIC), P. aeruginosa. Format: cell-based. Conditions: Pseudomonas aeruginosa, ATCC27853, mean (n = 3), read-out: MIC P. a. In short, it runs like this:
as §1

For data set [7], the system named is S. aureus ATCC 25923. Put plainly: Antimicrobial susceptibility (MIC), S. aureus. Format: cell-based, Staphylococcus aureus. Conditions: Staphylococcus aureus, ATCC25923; S. aureus ATCC 25923; mean (n = 3).
Another data set concerns C. albicans ATCC 90028. In words: Antifungal susceptibility (MIC), C. albicans. Format: cell-based. Particulars: Candida albicans, ATCC90028, mean (n = 2). In short, it runs like this:
as §1

In data set [8] the test system is HEK293 (human embryonic kidney cells). In words: Cytotoxicity assay HEK293. It counts as cell-based. Particulars: mean (n = 2). As to the method:
(§2) Cytotoxicity assays were conducted according to previously reported protocols.

Data set [9] can be described thus: Cytotoxicity assay HEK293. It counts as cell-based, human. Conditions: human, HEK293 cells, mean (n = 2), read-out: Cyto. IC50 (concentration of compound at 50% cytotoxicity). As to the method: as §2

≈ marks a conversion by molar mass, not a printed value. Entries after “also recorded” stand apart in the source; their conditions may differ. Read-outs that look alike come from different tables or passages of the source. Bounds are passed on as bounds.

Broadly, the MIC is the smallest concentration in the dilution series that meets the test's criterion for growth inhibition. Take `O=C(NCCCNCCCCNCCCNC(=O)C(=O)c1c[nH]c2cc(Br)ccc12)C(=O)c1c[nH]c2cc(Br)ccc12` [Compound 1]: the MIC is 1.1 µM (≈ 0.773 µg/mL) with Cryptococcus neoformans and 6.25 µM (≈ 4.39 µg/mL) in the data set on S. aureus ATCC 25923 [1]. Moreover, the IC50 in [2] was 5.1 µM; in data set [4] it was 7.7 µM. Besides, the “antibiotic enhancement in combination with doxycycline” value in the data set on P. aeruginosa ATCC 27853 [3] is “strong antibiotic enhancement effect”.

`Cc1cccc2c(C(=O)C(=O)NCCCNCCCCCCCNCCCNC(=O)C(=O)c3c[nH]c4c(C)cccc34)c[nH]c12.O=C(O)C(F)(F)F.O=C(O)C(F)(F)F` [Compound 23b, N^1,N^7-Bis(3-(2-(7-methyl-1H-indol-3-yl)-2-oxoacetamido)propyl)heptane-1,7-diaminium 2,2,2-trifluoroacetate]: the “Conc (µM) for Potentiation of doxycycline” value in the data set on P. aeruginosa ATCC 27853 [5] turned out to be 240 µM. Moreover, the MIC in the data set with E. coli ATCC 25922 was 120 µM; with MRSA ATCC 43300 it was at most 0.3 µM; in the data set on P. aeruginosa ATCC 27853 [6], above 240 µM; against S. aureus ATCC 25923 [7] it was 14.8 µM; in the data set with C. albicans ATCC 90028 it was above 38 µM. For the same compound, the “Cyto. IC50 (concentration of compound at 50% cytotoxicity)” value in data set [8] is “non-cytotoxic; also recorded: no detectable cytotoxicity”. Also, the IC50 in [9] is above 38 µM.

On to `Cc1cccc2c(C(=O)C(=O)NCCCNCCCCCCCCNCCCNC(=O)C(=O)c3c[nH]c4c(C)cccc34)c[nH]c12.O=C(O)C(F)(F)F.O=C(O)C(F)(F)F` [Compound 23c, N^1,N^8-Bis(3-(2-(7-methyl-1H-indol-3-yl)-2-oxoacetamido)propyl)octane-1,8-diaminium 2,2,2-trifluoroacetate], for which the “Conc (µM) for Potentiation of doxycycline” value with P. aeruginosa ATCC 27853 [5] was 230 µM. The MIC in the data set on E. coli ATCC 25922 is 29 µM; with MRSA ATCC 43300, at most 0.29 µM; in the data set on P. aeruginosa ATCC 27853 [6], above 230 µM; in the data set with S. aureus ATCC 25923 [7] it was 7.3 µM; against C. albicans ATCC 90028, above 37 µM. In [8], the “Cyto. IC50 (concentration of compound at 50% cytotoxicity)” value is given as “non-cytotoxic; also recorded: no detectable cytotoxicity”. Also, in data set [9], the IC50 is above 37 µM.
